Assay results published in patent publication US20260182611A1, “SWEETENER COMPOSITION AND TASTE-IMPROVING AGENT” (AJINOMOTO CO., INC., priority 2023, published 2026).

Experiment: Sensory evaluation of taste quality (sweetness intensity, bitter taste, lingering sweetness) of sweet solutions by trained panel
Set-up: species or system human
Settings: closer to PC sucrose
Protocol: Rebaudioside A (MORITA KAGAKU KOGYO CO., LTD.) was dissolved in filtered water (ion exchange water) to prepare a 720 ppm aqueous solution of rebaudioside A, which was used as the negative control (NC) solution.
Sucrose (Mitsui DM Sugar Co., Ltd.) was dissolved in filtered water to prepare a 7.5% aqueous solution of sucrose, which was used as the positive control (PC) solution.
Sweet solutions prepared by adding each compound (naringenin (Penta Manufacturing Company), hesperetin (Xi'an International Healthcare Factory Co., Ltd.), pinocembrin (Shaanxi Ebony Biotech Co., Ltd.), γ-Glu-Val-Gly (AJINOMOTO CO., INC.), γ-Glu-Abu (AJINOMOTO CO., INC.), yeast extract containing γ-Glu-Abu, γ-nonalactone (Sigma-Aldrich Co. LLC.)) to NC solution at the concentrations indicated in Tables 1 to 5 were evaluated by sensory evaluation.
The yeast extract containing γ-Glu-Abu used in this example was a powdered yeast extract containing 7 to 13% (w/w) γ-Glu-Abu based on dry weight, which was produced in accordance with the method described in WO 2012/046731 or “Savorboost (product name) yeast extract containing γ-Glu-Abu (Asahi Group Foods, Ltd.)”. In Tables 1-4, the concentration of the yeast extract containing γ-Glu-Abu added is shown as a value converted to the amount of γ-Glu-Abu in the yeast extract.
The taste quality of the PC solution (7.5% sucrose) was scored as 10.0 points, the taste quality of the NC solution (720 ppm rebaudioside A) was scored as 1.0 points, and the sensory evaluation score for each sample was evaluated in 0.1 point increments. The taste quality was evaluated including sweetness intensity, intensity of bitter taste, and intensity of lingering sweetness. Samples with an evaluation score of 3 or higher were deemed to have a taste quality-improving effect. The evaluation was performed by a panel of four people who had received sensory evaluation training, and was conducted by blind evaluation. The average evaluation score of all panel members was calculated and addition effect was examined.
In addition, to compare with the addition effect of a single component, a theoretical additive point was calculated and compared with the evaluation score when the components were added in combination to examine the presence or absence of a synergistic effect.

[1] = 5 ppm of the flavonoid in combination with 0.3 ppm γ-Glu-Val-Gly
[2] = flavonoid in combination with γ-Glu-Abu or a yeast extract containing γ-Glu-Abu

For `COc1ccc(C2CC(=O)c3c(O)cc(O)cc3O2)cc1O` (stereo not shown) [hesperetin], the “taste quality of rebaudioside A” value [1] was “synergistically improved the taste quality of rebaudioside A” and the “taste quality of rebaudioside A” value [2] was “synergistically improved the taste quality of rebaudioside A”.

In the case of `O=C1CC(c2ccccc2)Oc2cc(O)cc(O)c21` (stereo not shown) [pinocembrin], the “taste quality of rebaudioside A” value [1] is reported as “synergistically improved the taste quality of rebaudioside A”, the “taste quality of rebaudioside A” value (combination of pinocembrin and rebaudioside A alone) is reported as “improved the taste quality of rebaudioside A” and the “taste quality of rebaudioside A” value [2] is reported as “synergistically improved the taste quality of rebaudioside A”.

In the case of `O=C1C[C@@H](c2ccc(O)cc2)Oc2cc(O)cc(O)c21` [naringenin], the “taste quality of rebaudioside A” value [1] is reported as “synergistically improved the taste quality of rebaudioside A” and the “taste quality of rebaudioside A” value [2] is reported as “synergistically improved the taste quality of rebaudioside A”.
